Experimental data taken from US10493077B2, “Fused imidazo-piperidine JAK inhibitor compound” (THERAVANCE BIOPHARMA R&D IP, LLC, priority 2017, dated 2019).

Experiments:
SLK = biological target: T1, SLK (Homo sapiens, UniProt Q9H2G2); assay: Kinome screen, SLK; assay type: binding; conditions: screened at 1 μM
T1 construct: made in house; host or cells: T7 phage in E. coli (BL21-derived) or HEK-293
Procedure: (§1) Kinase-tagged T7 phage strains were grown in parallel in 24-well blocks in an E. coli host derived from the BL21 strain. E. coli were grown to log-phase and infected with T7 phage from a frozen stock (multiplicity of infection=0.4) and incubated with shaking at 32° C. until lysis (90-150 minutes). The lysates were centrifuged (6,000×g) and filtered (0.2 μm) to remove cell debris. The remaining kinases were produced in HEK-293 cells and subsequently tagged with DNA for qPCR detection.
(§2) Streptavidin-coated magnetic beads were treated with biotinylated small molecule ligands for 30 minutes at room temperature to generate affinity resins for kinase assays. The liganded beads were blocked with excess biotin and washed with blocking buffer (SeaBlock (Pierce), 1% BSA, 0.05% Tween 20, 1 mM DTT) to remove unbound ligand and to reduce non-specific phage binding. […] Test compounds were prepared as 40× stocks in 100% DMSO and directly diluted into the assay. All reactions were performed in polypropylene 384-well plates in a final volume of 0.04 ml. […] The beads were then re-suspended in elution buffer (1×PBS, 0.05% Tween 20, 0.5 μM non-biotinylated affinity ligand) and incubated at room temperature with shaking for 30 minutes. The kinase concentration in the eluates was measured by qPCR.

IFNγ induced pSTAT1 = assay: Pharmacodynamic assay: inhibition of IFNγ-induced pSTAT1 in rabbit eyes; assay type: in vivo; conditions: rabbits
Procedure: The ability of a single intravitreal administration of test compound to inhibit interferon-gamma (IFNγ) induced phosphorylation of STAT1 protein (pSTAT1) was measured in rabbit retina/choroid tissue.
A suspension formulation was prepared by combining compound 1 of Example 2 (Form 1), with 0.5% hydroxypropyl methylcellulose (HPMC E5), 0.02% Tween 80, and 9 mg/mL sodium chloride in purified water to attain a target concentration of 20 mg/mL.
Male, New Zealand White rabbits (Liveon Biolabs, India) were used for the studies. Animals were acclimated after arrival at the research facilities (Jubilant Biosys Ltd., India). Each rabbit was given a total of two intravitreal (IVT) injections with a total dose volume of 50 μL per eye. The first IVT injection (45 μL per eye) delivered 0.9 mg of test compound or vehicle. […] On the day of the injections, rabbits were anesthetized with an intramuscular injection of ketamine (35 mg/kg) and xylazine (5 mg/kg). Once deeply anesthetized, each eye was rinsed with sterile saline and IVT injections were performed using a 0.5 mL insulin syringe (50 units=0.5 mL) with a 31-gauge needle at the supra-nasal side of the both eyes by marking the position with a Braunstein fixed caliper (2¾″) 3.5 mm from the rectus muscle and 4 mm from the limbus.
Tissues were collected 2 hours after the second IVT injection with IFNγ. Retina/choroid tissues (R/C) were collected and homogenized, and pSTAT1 levels were measured by quantitative Western Blot on the ProteinSimple WES instrument. The percent inhibition of IFNγ-induced pSTAT1 was calculated in comparison to the vehicle/vehicle and vehicle/IFNγ groups.
Male, New Zealand White rabbits (Liveon Biolabs, India) were used for the studies. Animals were acclimated after arrival at the research facilities (Jubilant Biosys Ltd., India). Each rabbit was given a total of two intravitreal (IVT) injections with a total dose volume of 50 μL per eye. The first IVT injection (45 μL per eye) delivered 500 μg, 150 μg, or 50 μg of test compound or vehicle. Two weeks later, a second IVT injection (5 μL per eye) delivered IFNγ (1 μg/eye; stock solution 1 mg/mL; Kingfisher Biotech) or vehicle for the induction of IP-10. On the day of the injections, rabbits were anesthetized with an intramuscular injection of ketamine (35 mg/kg) and xylazine (5 mg/kg). Once deeply anesthetized, each eye was rinsed with sterile saline and IVT injections were performed using a 0.5 mL insulin syringe (50 units=0.5 mL) with a 31-gauge needle at the supra-nasal side of the both eyes by marking the position with a Braunstein fixed caliper (2¾″) 3.5 mm from the rectus muscle and 4 mm from the limbus.

ALK = biological target: T2, ALK (Homo sapiens, UniProt Q9UM73); assay: Kinome screen, ALK; assay type: binding; conditions: screened at 1 μM
T2 construct: made in house; host or cells: T7 phage in E. coli (BL21-derived) or HEK-293
T2 sequence (Q9UM73 19-1620): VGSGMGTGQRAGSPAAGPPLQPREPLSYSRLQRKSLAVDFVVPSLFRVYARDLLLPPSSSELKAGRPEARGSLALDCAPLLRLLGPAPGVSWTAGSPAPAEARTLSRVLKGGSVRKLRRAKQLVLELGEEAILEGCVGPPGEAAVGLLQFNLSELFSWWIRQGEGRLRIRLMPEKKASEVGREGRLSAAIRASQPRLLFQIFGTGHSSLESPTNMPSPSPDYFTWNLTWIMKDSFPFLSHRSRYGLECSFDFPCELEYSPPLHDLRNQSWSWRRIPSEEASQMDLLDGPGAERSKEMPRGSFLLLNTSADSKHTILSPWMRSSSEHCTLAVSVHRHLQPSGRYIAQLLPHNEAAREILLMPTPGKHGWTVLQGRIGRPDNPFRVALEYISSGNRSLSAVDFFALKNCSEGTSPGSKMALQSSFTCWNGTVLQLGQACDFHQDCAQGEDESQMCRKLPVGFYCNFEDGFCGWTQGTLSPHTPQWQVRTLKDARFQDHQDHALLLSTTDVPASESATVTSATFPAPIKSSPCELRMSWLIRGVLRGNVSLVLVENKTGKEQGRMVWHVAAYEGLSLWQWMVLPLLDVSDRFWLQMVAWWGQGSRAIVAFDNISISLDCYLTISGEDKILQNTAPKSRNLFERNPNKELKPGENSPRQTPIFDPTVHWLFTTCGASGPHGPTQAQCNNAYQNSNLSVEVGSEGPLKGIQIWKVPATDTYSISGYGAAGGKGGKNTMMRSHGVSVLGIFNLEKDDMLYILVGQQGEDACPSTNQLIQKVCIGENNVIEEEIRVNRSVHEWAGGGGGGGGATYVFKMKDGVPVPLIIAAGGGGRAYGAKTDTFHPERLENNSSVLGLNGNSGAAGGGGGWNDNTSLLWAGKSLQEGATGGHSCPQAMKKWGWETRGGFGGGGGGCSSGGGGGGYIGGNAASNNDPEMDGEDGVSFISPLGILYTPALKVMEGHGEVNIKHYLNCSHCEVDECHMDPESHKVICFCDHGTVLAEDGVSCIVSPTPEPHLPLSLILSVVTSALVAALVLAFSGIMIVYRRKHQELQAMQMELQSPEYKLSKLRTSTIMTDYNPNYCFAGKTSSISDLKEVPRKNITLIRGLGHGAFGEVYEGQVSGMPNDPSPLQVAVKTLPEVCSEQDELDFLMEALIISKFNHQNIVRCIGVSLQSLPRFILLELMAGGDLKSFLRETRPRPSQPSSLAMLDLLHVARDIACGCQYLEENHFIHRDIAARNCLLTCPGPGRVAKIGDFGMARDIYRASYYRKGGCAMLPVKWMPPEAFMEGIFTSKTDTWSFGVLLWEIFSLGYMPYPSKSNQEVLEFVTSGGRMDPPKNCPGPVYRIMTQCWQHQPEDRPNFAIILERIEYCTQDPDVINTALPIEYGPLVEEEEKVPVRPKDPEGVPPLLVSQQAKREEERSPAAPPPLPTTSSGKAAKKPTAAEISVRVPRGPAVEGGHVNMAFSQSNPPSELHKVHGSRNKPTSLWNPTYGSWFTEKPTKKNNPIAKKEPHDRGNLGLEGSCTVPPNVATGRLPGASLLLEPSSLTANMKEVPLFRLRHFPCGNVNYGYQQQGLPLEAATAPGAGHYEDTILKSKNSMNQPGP
Procedure: as §1, §2

[1] = test system: IL-2 stimulated pSTAT5 in CD4+ T cells; assay: Cellular JAK potency assay: inhibition of IL-2 stimulated pSTAT5 in CD4+ T cells; assay type: cell-based; conditions: 0.5 h; CD4+ T cells in human PBMCs, 30 min stimulation; read-out: pIC50, inhibition of IL-2 stimulated pSTAT5 (converted)
Procedure: The potency of the test compound for inhibition of interleukin-2 (IL-2)/anti-CD3 stimulated STAT5 phosphorylation was measured in CD4-positive (CD4+) T cells in human peripheral blood mononuclear cells (PBMCs) isolated from human whole blood (Stanford Blood Center) using flow cytometry. Because IL-2 signals through JAK, this assay provides a measure of JAK cellular potency.
CD4+ T cells were identified using a […] (PE) conjugated anti-CD4 antibody (Clone RPA-T4, BD Biosciences), while an Alexa Fluor 647 conjugated anti-pSTAT5 antibody (pY694, Clone 47, BD Biosciences) was used to detect STAT5 phosphorylation. […]
(2) After cytokine stimulation, cells were fixed with pre warmed fix solution (200 μL; BD Biosciences) for 10 min at 37° C., 5% CO2, washed twice with DPBS buffer (1 mL, Life Technologies), and resuspended in ice cold Perm Buffer III (1000 μL, BD Biosciences) for 30 min at 4° C. […] After incubation, cells were washed twice in FACS buffer before being analyzed using a LSRII flow cytometer (BD Biosciences). To determine the inhibitory potency of the test compound in response to IL-2/anti-CD3, the median fluorescent intensity (MFI) of pSTAT5 was measured in CD4+ T cells. IC50 values were determined from analysis of the inhibition curves of MFI vs compound concentration. Data are expressed as pIC50 (negative decadic logarithm IC50) values.

SRC = biological target: T3, SRC (Homo sapiens, UniProt P12931); assay: Kinome screen, SRC; assay type: binding; conditions: screened at 1 μM
T3 construct: made in house; host or cells: T7 phage in E. coli (BL21-derived) or HEK-293
T3 sequence (P12931 whole entry): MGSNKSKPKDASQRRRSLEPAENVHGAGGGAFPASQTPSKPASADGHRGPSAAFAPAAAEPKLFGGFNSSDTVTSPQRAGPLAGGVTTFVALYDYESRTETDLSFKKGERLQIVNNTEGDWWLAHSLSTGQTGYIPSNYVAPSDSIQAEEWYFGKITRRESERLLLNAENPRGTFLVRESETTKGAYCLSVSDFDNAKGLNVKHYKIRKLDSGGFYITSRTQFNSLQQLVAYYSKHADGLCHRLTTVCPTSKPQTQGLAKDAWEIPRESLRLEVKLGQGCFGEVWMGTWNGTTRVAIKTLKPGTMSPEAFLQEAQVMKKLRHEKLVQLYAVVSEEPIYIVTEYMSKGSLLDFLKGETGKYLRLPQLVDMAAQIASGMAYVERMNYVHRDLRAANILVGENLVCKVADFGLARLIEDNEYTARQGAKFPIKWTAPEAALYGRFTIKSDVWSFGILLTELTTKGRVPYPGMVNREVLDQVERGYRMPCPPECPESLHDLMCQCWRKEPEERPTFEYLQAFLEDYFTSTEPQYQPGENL
Procedure: as §1, §2

PAK4 = biological target: T4, PAK4 (Homo sapiens, UniProt O96013); assay: Kinome screen, PAK4; assay type: binding; conditions: screened at 1 μM
T4 construct: made in house; host or cells: T7 phage in E. coli (BL21-derived) or HEK-293
T4 sequence (O96013 whole entry): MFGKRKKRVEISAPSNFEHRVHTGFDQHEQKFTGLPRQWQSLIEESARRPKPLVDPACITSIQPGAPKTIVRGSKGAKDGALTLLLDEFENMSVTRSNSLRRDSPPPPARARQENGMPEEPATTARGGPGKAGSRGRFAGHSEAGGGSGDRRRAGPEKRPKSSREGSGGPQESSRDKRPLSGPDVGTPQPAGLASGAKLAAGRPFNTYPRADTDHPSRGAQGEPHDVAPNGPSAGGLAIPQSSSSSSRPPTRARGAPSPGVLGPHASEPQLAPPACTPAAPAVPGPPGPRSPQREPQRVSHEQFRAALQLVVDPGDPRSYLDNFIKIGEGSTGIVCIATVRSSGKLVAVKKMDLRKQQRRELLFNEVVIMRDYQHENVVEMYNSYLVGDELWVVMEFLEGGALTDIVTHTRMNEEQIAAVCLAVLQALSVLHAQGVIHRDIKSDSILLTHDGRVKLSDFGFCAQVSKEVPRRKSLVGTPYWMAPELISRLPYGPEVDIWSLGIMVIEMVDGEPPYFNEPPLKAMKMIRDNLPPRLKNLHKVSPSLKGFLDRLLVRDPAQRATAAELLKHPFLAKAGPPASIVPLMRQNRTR
Procedure: as §1, §2

T1 sequence (Q9H2G2 whole entry): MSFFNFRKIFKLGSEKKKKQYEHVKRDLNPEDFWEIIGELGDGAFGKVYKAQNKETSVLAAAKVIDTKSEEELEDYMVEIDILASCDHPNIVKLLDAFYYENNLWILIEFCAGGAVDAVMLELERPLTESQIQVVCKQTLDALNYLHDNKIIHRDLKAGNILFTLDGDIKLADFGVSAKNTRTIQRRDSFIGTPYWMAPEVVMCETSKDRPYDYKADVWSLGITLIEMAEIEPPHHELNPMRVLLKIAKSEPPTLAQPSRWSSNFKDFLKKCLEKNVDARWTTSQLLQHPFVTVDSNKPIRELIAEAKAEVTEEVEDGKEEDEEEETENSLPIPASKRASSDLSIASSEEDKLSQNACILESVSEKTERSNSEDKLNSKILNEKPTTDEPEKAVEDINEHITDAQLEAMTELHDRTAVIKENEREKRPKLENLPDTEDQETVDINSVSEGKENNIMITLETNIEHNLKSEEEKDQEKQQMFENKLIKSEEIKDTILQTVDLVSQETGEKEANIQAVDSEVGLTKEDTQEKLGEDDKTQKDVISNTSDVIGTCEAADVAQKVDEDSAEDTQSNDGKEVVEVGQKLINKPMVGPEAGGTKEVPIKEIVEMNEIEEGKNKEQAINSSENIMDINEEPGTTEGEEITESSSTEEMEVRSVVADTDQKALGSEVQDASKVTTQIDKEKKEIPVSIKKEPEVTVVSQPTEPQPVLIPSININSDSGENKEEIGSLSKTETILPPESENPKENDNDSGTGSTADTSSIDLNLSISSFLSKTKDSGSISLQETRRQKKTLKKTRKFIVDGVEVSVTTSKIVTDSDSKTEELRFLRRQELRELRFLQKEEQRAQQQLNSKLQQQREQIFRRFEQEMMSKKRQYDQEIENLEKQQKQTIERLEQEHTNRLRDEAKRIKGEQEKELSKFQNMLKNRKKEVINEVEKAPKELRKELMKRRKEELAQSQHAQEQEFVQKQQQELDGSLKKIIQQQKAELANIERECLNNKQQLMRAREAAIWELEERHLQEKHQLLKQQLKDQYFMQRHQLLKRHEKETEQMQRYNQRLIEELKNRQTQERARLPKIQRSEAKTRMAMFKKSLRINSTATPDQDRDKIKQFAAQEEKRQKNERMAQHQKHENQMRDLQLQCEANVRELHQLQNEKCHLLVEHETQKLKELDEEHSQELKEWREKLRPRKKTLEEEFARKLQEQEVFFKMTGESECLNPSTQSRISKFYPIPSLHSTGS

**Q.** `CCc1cc(O)c(F)cc1-c1cc(F)c2c(-c3nc4c([nH]3)CCN(C(=O)CN3CCOCC3)C4)n[nH]c2c1` [Compound 1, 1-(2-(6-(2-ethyl-5-fluoro-4-hydroxyphenyl)-4-fluoro-1H-indazol-3-yl)-1,4,6,7-tetrahydro-5H-imidazo[4,5-c]pyridin-5-yl)-2-morpholinoethan-1-one] was tested. Which inhibition at 1 µM (SLK) did it give?
**A.** 100%

**Q.** What about the “inhibition of IFNγ-induced pSTAT1 in retina/choroid” value (“inhibition … in retina/choroid” for short) (IFNγ induced pSTAT1; Form 1 suspension, 0.9 mg intravitreal, 1 week pre-treatment) of the same compound?
**A.** 85%

**Q.** And the “inhibition … in retina/choroid” value (IFNγ induced pSTAT1; Form 1 suspension, single intravitreal dose, 3 month pre-treatment)?
**A.** 76%

**Q.** What about the “inhibition … in retina/choroid” value (IFNγ induced pSTAT1; Form 2 suspension, 50 μg intravitreal, 2 week pre-treatment) of the same compound?
**A.** 61%

**Q.** What about the “inhibition … in retina/choroid” value (IFNγ induced pSTAT1; Form 2 suspension, 150 μg intravitreal, 2 week pre-treatment) of the same compound?
**A.** 58%

**Q.** What about the “inhibition … in retina/choroid” value (IFNγ induced pSTAT1; Form 2 suspension, 500 μg intravitreal, 2 week pre-treatment) of the same compound?
**A.** 79%

**Q.** What about the inhibition at 1 µM (ALK) of the same compound?
**A.** 75%

**Q.** And the IC50 [1]?
**A.** ~20 nM

**Q.** And the inhibition at 1 µM (SRC)?
**A.** 93%

**Q.** And the inhibition at 1 µM (PAK4)?
**A.** 93%
